From PMC11990924, “Inhibition of Tyrosinase and Melanogenesis by Carboxylic Acids: Mechanistic Insights and Safety Evaluation” (Molecules, 2025)
pIC50: −log10 of the molar value.

Key:
B16-F10 cells = experiment: Proteomic analysis of B16-F10 cells (DIA mass spectrometry); format: cell-based, mouse
Description: B16-F10 cells were treated with various concentrations of carboxylic acids following the same culture protocol used for melanin inhibition assays. After treatment, the cells were collected and submitted to Shanghai Zhongke Xinming Biotechnology Co., Ltd. (Shanghai, China) for proteomics analysis. The collected cells were lysed with an appropriate volume of SDT lysis buffer (4% SDS, 100 mM Tris-HCl, pH 7.6) to extract proteins. DTT was added to reduce disulfide bonds, followed by incubation at room temperature for 1 h. Subsequently, iodoacetamide was added, and the mixture was reacted in the dark at room temperature for 30 min. The proteins were then digested with trypsin overnight. The resulting peptide fragments were desalted using a C18 cartridge. After freeze-drying, the peptides were resuspended in 40 μL of 0.1% formic acid solution, and the peptide concentration was determined by measuring the absorbance at 280 nm. An appropriate amount of internal reference for targeted proteomics (iRT) standard peptides was added to each sample for data-independent acquisition (DIA) mass spectrometry analysis. Chromatographic separation was performed using a nanoflow Evosep One system. The separated samples were analyzed by DIA mass spectrometry using a timsTOF Pro mass spectrometer (Bruker Daltonics, Bremen, Germany). Detection was conducted in positive-ion mode, with MS and MS/MS scanning ranges set from 100 to 1700 m/z. MS2 data acquisition was performed in DIA mode, with four TIMS scan windows, each accumulating for 100 ms. In PASEF mode, the collision energy varied linearly with ion mobility (1/K0), ranging from 20 to 59 eV for ions with 1/K0 values between 0.85 and 1.30 Vs/cm^2. The DIA data were processed using Spectronaut 19 software with the following parameter settings: retention time prediction type set to dynamic iRT, interference correction on MS2 level enabled, cross-run normalization enabled, maximum missed cleavage sites set to 2, fixed modification set to Carbamidomethyl (C), and variable modifications set to Oxidation (M) and Acetyl (Protein N-term). All results were filtered with a Q-value cutoff of 0.01, corresponding to a false discovery rate (FDR) of less than 1%. The target protein set was annotated using Blast2GO (version BLASTP 2.8.0+). The process included four steps: sequence alignment (Blast), GO mapping, GO annotation, and additional annotation augmentation using InterProScan. Using the KOBAS 3.0 software, KEGG pathway annotation was performed on the target protein set. Fisher’s exact test was employed to compare the distribution of GO categories in the target protein set and the overall protein set, thereby conducting enrichment analysis of the GO annotations in the target protein set. The proteomics dataset generated in this study has been made publicly available through the PRIDE ProteomeXchange Consortium with the dataset identifier PXD061919.

[1] = L-DOPA auto-oxidation analysis
Description: A 5 mM L-DOPA solution was prepared in PBS buffer (pH 7.4). Subsequently, 240 μL of carboxylic acid solution, 360 μL of L-DOPA solution, and 120 μL of PBS buffer were sequentially mixed. The mixture was then incubated at 37 °C for 12 h. […] Deionized water was used as the control. The inhibition of L-DOPA auto-oxidation was calculated using the same method as the melanin content analysis.

## O=C(O)C(O)Cc1ccccc1 (stereo not drawn) [3-phenyllactic acid]
B16-F10 cells; 6 mM vs control, Table S1
  ATP8 protein fold change: 0.4618
  Aanat protein fold change: 2.208
  Acta1 protein fold change: 2.921
  Adgrg1 protein fold change: 0.4728
  Agtrap protein fold change: 0.4687
  Antxr2 protein fold change: 0.4747
  Aplp2 protein fold change: 0.2246
  Apob protein fold change: 0.4962
  Apoh protein fold change: 0.4857
  App protein fold change: 0.3729
  Arl6ip1 protein fold change: 0.4901
  Bace2 protein fold change: 0.4069
  Bcl9 protein fold change: 2.336
  Bltp1 protein fold change: 2.099
  Bst2 protein fold change: 0.3949
  CUB domain-containing protein (Q3TD85) fold change: 0.4924
  Cav2 protein fold change: 0.4909
  Cdc42se1 protein fold change: 0.3683
  Cisd2 protein fold change: 0.4369
  Cks2 protein fold change: 0.4644
  Ctns protein fold change: 0.3087
  Cxne protein fold change: 0.3753
  Cyp51a1 protein fold change: 0.3449
  Ddit3 protein fold change: 2.105
  Dgcr2 protein fold change: 0.4147
  Dnajc19 protein fold change: 0.3587
  E2f5 protein fold change: 2.473
  Eng protein fold change: 0.3635
  Entpd7 protein fold change: 0.3998
  Epb41l4b protein fold change: 2.181
  Fam174b protein fold change: 0.4339
  Fau protein fold change: 4.21
  Fosl2 protein fold change: 5.488
  Fv4 protein fold change: 0.4177
  Ginm1 protein fold change: 0.3741
  Glmp protein fold change: 0.4495
  H1-0 protein fold change: 2.057
  H3c14 protein fold change: 3.134
  Hbbt1 protein fold change: 0.388
  Hmgcs1 protein fold change: 0.3916
  Hspa13 protein fold change: 0.4084
  Ifi205 protein fold change: 2.571
  Ifitm2 protein fold change: 0.4697
  Il10rb protein fold change: 0.3763
  Itih3 protein fold change: 0.3529
  Itm2b protein fold change: 0.2428
  Itm2c protein fold change: 0.3416
  Kbtbd2 protein fold change: 0.4177
  Kcnj13 protein fold change: 0.3629
  Laptm4a protein fold change: 0.2076
  Laptm4b protein fold change: 0.3669
  Ldha protein fold change: 2.104
  Ldlr protein fold change: 0.4018
  Mast4 protein fold change: 2.12
  Met protein fold change: 0.4986
  Mfap3 protein fold change: 0.4088
  Mlana protein fold change: 0.2524
  Mtfr2 protein fold change: 0.4374
  Myl6 protein fold change: 0.4951
  Ndfip1 protein fold change: 0.3294
  Nfatc2 protein fold change: 0.2366
  Nrp1 protein fold change: 0.4865
  Nrp2 protein fold change: 0.3408
  Pacsin2 protein fold change: 0.3403
  Phyhd1 protein fold change: 2.286
  Pmel protein fold change: 0.4916
  Psap protein fold change: 0.4703
  Ptprs protein fold change: 0.4896
  Rad51ap1 protein fold change: 0.4291
  Rnf220 protein fold change: 0.4969
  Sdc1 protein fold change: 0.244
  Sdcbp protein fold change: 0.4883
  Serac1 protein fold change: 2.052
  Sfpq protein fold change: 2.482
  Sgce protein fold change: 0.4392
  Slc2a6 protein fold change: 0.4306
  Slc4a2 protein fold change: 0.48
  Slc7a1 protein fold change: 0.4712
  Slc24a5 protein fold change: 0.4286
  Slc35b2 protein fold change: 0.3476
  Slc38a2 protein fold change: 0.3733
  Slc45a2 protein fold change: 0.451
  Sparcl1 protein fold change: 0.4926
  Syt4 protein fold change: 0.3106
  Tagln2 protein fold change: 0.2815
  Tgoln1 protein fold change: 0.479
  Tial1 protein fold change: 2.492
  Tmed1 protein fold change: 0.4801
  Tmem14c protein fold change: 4.332
  Tmem59 protein fold change: 0.233
  Tmem176a protein fold change: 0.2277
  Tmem176b protein fold change: 0.171
  Trib3 protein fold change: 2.531
  Try10 protein fold change: 0.2906
  Tspan3 protein fold change: 0.3162
  Tspan10 protein fold change: 0.3282
  Tubb4a protein fold change: 3.655
  Tyrp1 protein fold change: 0.3578
  U2af1l4 protein fold change: 2.0208
  Ube2j1 protein fold change: 0.3514
  Ubl3 protein fold change: 0.2819
  Zbtb3 protein fold change: 2.269
  env protein fold change: 0.4886
  il6st protein fold change: 0.4117
  p53 (Fragment) (A6YM30) protein fold change: 3.222
B16-F10 cells; mouse B16-F10 cells, proteomic analysis
  regulation of MMP9 or PPARG: did not significantly downregulate
[1]; 1.5 mM
  L-DOPA auto-oxidation inhibition rate: exceeding 80%
[1]; 37 °C, 12 h, calculated using SPSS, read-out: IC50 for L-DOPA auto-oxidation inhibition
  pIC50: 3.20
